From patent EP4745138A1, “THIO-GLUTARIMIDO ISOINDOLINONE DERIVATIVE, BIFUNCTIONAL PROTEIN DEGRADER CONTAINING SAME, AND USES THEREOF” (Gluetacs Therapeutics (Shanghai) Co., Ltd., priority 2023, dated 2025)

How the values were obtained:
MV-4-11 = experiment: Tumor cell proliferation inhibition (CellTiter-Meiluncell Luminescent Cell Viability Assay); format: cell-based; conditions: Homo sapiens, 96 hours, Table I-7, CDK9 inhibitors; for inhibition at 0.01 µM: MV4-11, 10 nM, read-out: Inhibition Rate at 10 nM (%); for inhibition at 0.5 µM: MV4-11, 500 nM, read-out: Inhibition Rate at 500 nM (%)
Summary of the method: (§1)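 Following overnight seeding, tumor cells received serial compound dilutions to final levels that included 10 nM and 500 nM. Viability was assessed by luminescence at the end of the specified exposure time. Cultures were kept at 37°C with 5% CO2.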

[1] = biological target: T1, human Cereblon WT GST-tagged protein (Homo sapiens, UniProt Q96SW2); experiment: CRBN-binding affinity, HTRF (CEREBLON BINDING kit); conditions: for inhibition at 0.5 µM: read-out: Inhibition Rate at 0.5 µM (%); for inhibition at 2 µM: read-out: Inhibition Rate at 2 µM (%)
T1 construct: purchased CISBIO 64BDCRBNPEH
T1 sequence (Q96SW2 whole entry): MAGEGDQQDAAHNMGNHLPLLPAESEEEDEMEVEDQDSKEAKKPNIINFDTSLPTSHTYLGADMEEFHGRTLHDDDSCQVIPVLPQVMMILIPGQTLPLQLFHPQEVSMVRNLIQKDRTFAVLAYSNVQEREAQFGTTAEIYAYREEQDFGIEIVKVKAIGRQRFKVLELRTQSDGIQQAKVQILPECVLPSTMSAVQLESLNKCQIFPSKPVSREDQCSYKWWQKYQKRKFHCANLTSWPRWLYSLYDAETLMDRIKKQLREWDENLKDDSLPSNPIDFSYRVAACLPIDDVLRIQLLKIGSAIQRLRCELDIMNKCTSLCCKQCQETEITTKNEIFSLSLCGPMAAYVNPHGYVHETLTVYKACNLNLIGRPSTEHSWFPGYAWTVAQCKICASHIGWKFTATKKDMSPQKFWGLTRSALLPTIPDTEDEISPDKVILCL
Summary of the method: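 Competitive HTRF binding: compounds diluted in diluent #9 incubated with GST-tagged wild-type human Cereblon, thalidomide-Red tracer and anti-GST Eu antibody. Final compound concentrations 2 µM and 0.5 µM.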

CDK9 = biological target: T2, CDK9 (Homo sapiens, UniProt P50750); experiment: Western blot, target protein degradation in MDA-MB-231 Cell; format: cell-based; conditions: substrate protein remaining %, treated at 500 nM and 50 nM, 24 hours
T2 construct: endogenous in cells; host or cells: MDA-MB-231
T2 sequence (P50750 whole entry): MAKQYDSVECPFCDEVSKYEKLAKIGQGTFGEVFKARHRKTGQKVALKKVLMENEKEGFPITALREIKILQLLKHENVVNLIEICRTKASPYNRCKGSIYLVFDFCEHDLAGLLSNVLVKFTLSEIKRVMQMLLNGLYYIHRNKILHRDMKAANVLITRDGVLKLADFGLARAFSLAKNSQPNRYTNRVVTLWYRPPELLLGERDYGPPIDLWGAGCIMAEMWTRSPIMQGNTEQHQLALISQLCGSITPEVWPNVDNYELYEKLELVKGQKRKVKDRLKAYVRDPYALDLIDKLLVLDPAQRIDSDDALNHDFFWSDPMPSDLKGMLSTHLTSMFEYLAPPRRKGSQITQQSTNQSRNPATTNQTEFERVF
Procedure: Conventional Western blot assay was performed to evaluate the effects of the compounds of the present disclosure on the expression of target proteins in cells.
(1) Cell Seeding and Protein Harvesting: The selected cells were processed according to the cell seeding procedure and protein harvesting procedure in Table II-2. Table II-2 Cell Seeding and Protein Harvesting Procedures
(2) To the collected supernatant, 5X SDS sample loading buffer was added, followed by denaturation at 95°C for 5 minutes. The denatured samples were then separated by SDS-PAGE electrophoresis on a polyacrylamide gel. Proteins were transferred to a nitrocellulose membrane (0.45 µm NC membrane), blocked with blocking buffer at room temperature for 1 hour, and subjected to antibody incubation and development procedures according to the antibody manufacturer's instructions (Cell Signaling Technology).
Half-Maximal Degradation Concentration value (the drug concentration required for degrading proteins by 50%, abbreviated as DC50) reads method: comparing the grayscale values of Western blot bands from drug-treated samples with those from blank DMSO-treated controls, and identifying the drug concentration range at which the grayscale value is half that of the DMSO-treated control bands.
DC50 values can be calculated using ImageJ software to measure grayscale values of Western blot bands from drug-treated samples. The concentration-response curve is fitted to estimate the drug concentration corresponding to half the grayscale value.
Target protein remaining (%) refers to the percentage of target protein remaining in cells after treatment with protein degrader compounds.
Calculation method for target protein remaining (%): Use ImageJ software to measure grayscale values of Western blot bands from drug (protein degrader)-treated samples. The grayscale value of drug-treated bands is divided by that of internal control protein bands, and the resulting quotient is normalized to obtain the relative percentage of remaining target protein after protein degrader treatment. Target protein degradation rate(%) = 1−target protein remaining(%). [formula]

H1975 = experiment: Tumor cell proliferation inhibition (CellTiter-Meiluncell Luminescent Cell Viability Assay); format: cell-based; conditions: Homo sapiens, 96 hours, Table I-3, EGFR inhibitors; for inhibition at 0.01 µM: NCI-H1975, 10 nM, read-out: Inhibition Rate at 10 nM (%); for inhibition at 0.5 µM: NCI-H1975, 500 nM, read-out: Inhibition Rate at 500 nM (%)
Summary of the method: as §1

MM.1S = experiment: as above; format: cell-based; conditions: Homo sapiens, MM1.S, MM.1S, 96 hours, Table I-7, CDK9 inhibitors; for inhibition at 0.01 µM: 10 nM, read-out: Inhibition Rate at 10 nM (%); for inhibition at 0.5 µM: 500 nM, read-out: Inhibition Rate at 500 nM (%)
Summary of the method: as §1

SMILES | inhibition at 0.5 µM [1] | inhibition at 2 µM [1] | inhibition at 0.01 µM (MV-4-11) | inhibition at 0.5 µM (MV-4-11) | Degradation of substrate protein CDK9 (CDK9) | inhibition at 0.01 µM (H1975) | inhibition at 0.5 µM (H1975) | inhibition at 0.01 µM (MM.1S) | inhibition at 0.5 µM (MM.1S)
O=C1CCC(N2Cc3c(CN4C[C@H]5C[C@@H]4CN5c4ccc(-c5cc(F)c6c(c5)C(=O)N(C(C(=O)Nc5nccs5)c5ncn7c5CCC7)C6)cc4)cccc3C2=S)C(=O)N1 (stereo partly drawn) [GT-08760, 2-(6,7-dihydro-5H-pyrrolo[1,2-c]imidazol-1-yl)-2-(6-(4-((1R,4R)-5-((2-(2,6-dioxopiperidin-3-yl)-1-thioxoisoindolin-4-yl)methyl)-2,5-diazabicyclo[2.2.1]heptan-2-yl)phenyl)-4-fluoro-1-oxoisoindolin-2-yl)-N-(thiazol-2-yl)acetamide] | 30 to 40% | 53 to 60% | – | – | – | 20 to 30% | 50 to 60% | – | –
N#CC1(CNc2nc(-c3cc(NC4CCN(Cc5cccc6c5CN(C5CCC(=O)NC5=O)C6=S)CC4)ncc3Cl)cs2)CCOCC1 (stereo not shown) [GT-08685, 4-(((4-(5-chloro-2-((1-((2-(2,6-dioxopiperidin-3-yl)-1-thioxoisoindolin-4-yl)methyl)piperidin-4-yl)amino)pyridin-4-yl)thiazol-2-yl)amino)methyl)tetrahy dro-2H-pyran-4-carbonitrile] | 53 to 60% | 80 to 100% | – | – | A (0% ≤ substrate protein remaining % ≤ 80%) | – | – | – | –
Cn1ncc(-c2nc(NC3CCN(Cc4cccc5c4CN(C4CCC(=O)NC4=O)C5=S)CC3)ncc2Cl)c1CC1CC1 (stereo not shown) [GT-08686, 3-(4-((4-((5-chloro-4-(5-(cyclopropylmethyl)-1-methyl-1H-pyrazol-4-yl)pyrimidin-2-yl)amino)piperidin-1-yl)methyl)-1-thioxoisoindolin-2-yl)piperidine-2,6-dione] | 53 to 60% | 80 to 100% | 50 to 60% | 80 to 100% | A (0% ≤ substrate protein remaining % ≤ 80%) | – | – | 0 to 5% | 80 to 100%
N#CC1(CNc2cccc(-c3cc(NC4CCN(Cc5cccc6c5CN(C5CCC(=O)NC5=O)C6=S)CC4)ncc3Cl)n2)CCOCC1 (stereo not shown) [GT-08687, 4-(((5'-chloro-2'-((1-((2-(2,6-dioxopiperidin-3-yl)-1-thioxoisoindolin-4-yl)methyl)piperidin-4-yl)amino)-[2,4'-bipyridin]-6-yl)amino)methyl)tetrahy dro-2H-pyran-4-carbonitrile] | 30 to 40% | 60 to 80% | – | – | A (0% ≤ substrate protein remaining % ≤ 80%) | – | – | – | –
O=C1CCC(N2Cc3cc(CN4C[C@H]5C[C@@H]4CN5c4ccc(-c5cc(F)c6c(c5)C(=O)N(C(C(=O)Nc5nccs5)c5ncn7c5CCC7)C6)cc4)ccc3C2=S)C(=O)N1 (stereo partly drawn) [GT-08757, 2-(6,7-dihydro-5H-pyrrolo[1,2-c]imidazol-1-yl)-2-(6-(4-((1R,4R)-5-((2-(2,6-dioxopiperidin-3-yl)-1-thioxoisoindolin-5-yl)methyl)-2,5-diazabicyclo[2.2.1]heptan-2-yl)phenyl)-4-fluoro-1-oxoisoindolin-2-yl)-N-(thiazol-2-vl)acetamide] | 53 to 60% | 60 to 80% | – | – | – | 20 to 30% | 50 to 60% | – | –
N#CC1(CNc2nc(-c3cc(NC4CCN(Cc5ccc6c(c5)CN(C5CCC(=O)NC5=O)C6=S)CC4)ncc3Cl)cs2)CCOCC1 (stereo not shown) [GT-08681, 4-(((4-(5-chloro-2-((1-((2-(2,6-dioxopiperidin-3-yl)-1-thioxoisoindolin-5-yl)methyl)piperidin-4-yl)amino)pyridin-4-yl)thiazol-2-yl)amino)methyl)tetrahy dro-2H-pyran-4-carbonitrile] | 53 to 60% | 80 to 100% | – | – | A (0% ≤ substrate protein remaining % ≤ 80%) | – | – | – | –

The next lines start with results.

inhibition at 0.5 µM [1] | inhibition at 2 µM [1] | SMILES | inhibition at 0.01 µM (MV-4-11) | inhibition at 0.5 µM (MV-4-11) | Degradation of substrate protein CDK9 (CDK9) | inhibition at 0.01 µM (H1975) | inhibition at 0.5 µM (H1975) | inhibition at 0.01 µM (MM.1S) | inhibition at 0.5 µM (MM.1S)
40 to 53% | 80 to 100% | N#CC1(CNc2cccc(-c3cc(NC4CCN(Cc5ccc6c(c5)CN(C5CCC(=O)NC5=O)C6=S)CC4)ncc3Cl)n2)CCOCC1 (stereo not shown) [GT-08683, 4-(((5'-chloro-2'-((1-((2-(2,6-dioxopiperidin-3-yl)-1-thioxoisoindolin-5-yl)methyl)piperidin-4-yl)amino)-[2,4'-bipyridin]-6-yl)amino)methyl)tetrahy dro-2H-pyran-4-carbonitrile] | 50 to 60% | 50 to 60% | A (0% ≤ substrate protein remaining % ≤ 80%) | – | – | – | –
60 to 80% | 80 to 100% | O=C1CCC(N2Cc3ccc(CN4CCN(c5ccc(CC(=O)Nc6cc(C7CCC7)[nH]n6)cc5)CC4)cc3C2=S)C(=O)N1 (stereo not shown) [GT-08753, N-(5-cyclobutyl-1H-pyrazol-3-yl)-2-(4-(4-((2-(2,6-dioxopiperidin-3-yl)-3-thioxoisoindolin-5-yl)methyl)piperazin-1-yl)phenyl)acetamide] | – | – | A (0% ≤ substrate protein remaining % ≤ 80%) | – | – | – | –
60 to 80% | 80 to 100% | O=C1CCC(N2Cc3c(CN4CCN(c5ccc(CC(=O)Nc6cc(C7CCC7)[nH]n6)cc5)CC4)cccc3C2=S)C(=O)N1 (stereo not shown) [GT-08688, N-(5-cyclobutyl-1H-pyrazol-3-yl)-2-(4-(4-((2-(2,6-dioxopiperidin-3-yl)-1-thioxoisoindolin-4-yl)methyl)piperazin-1-yl)phenyl)acetamide] | 40 to 50% | 50 to 60% | A (0% ≤ substrate protein remaining % ≤ 80%) | – | – | – | –
60 to 80% | 80 to 100% | O=C1CCC(N2Cc3cc(CN4CCN(c5ccc(CC(=O)Nc6cc(C7CCC7)[nH]n6)cc5)CC4)ccc3C2=S)C(=O)N1 (stereo not shown) [GT-08684, N-(5-cyclobutyl-1H-pyrazol-3-yl)-2-(4-(4-((2-(2,6-dioxopiperidin-3-yl)-1-thioxoisoindolin-5-yl)methyl)piperazin-1-yl)phenyl)acetamide] | – | – | A (0% ≤ substrate protein remaining % ≤ 80%) | – | – | – | –
53 to 60% | 80 to 100% | N#CC1(CNc2cccc(-c3cc(NC4CCN(Cc5ccc6c(c5)C(=S)N(C5CCC(=O)NC5=O)C6)CC4)ncc3Cl)n2)CCOCC1 (stereo not shown) [GT-08752, 4-(((5'-chloro-2'-((1-((2-(2,6-dioxopiperidin-3-yl)-3-thioxoisoindolin-5-yl)methyl)piperidin-4-yl)amino)-[2,4'-bipyridin]-6-yl)amino)methyl)tetrahy dro-2H-pyran-4-carbonitrile] | 10 to 20% | 70 to 80% | A (0% ≤ substrate protein remaining % ≤ 80%) | – | – | – | –
60 to 80% | 80 to 100% | Cn1ncc(-c2nc(NC3CCN(Cc4ccc5c(c4)CN(C4CCC(=O)NC4=O)C5=S)CC3)ncc2Cl)c1CC1CC1 (stereo not shown) [GT-08682, 3-(5-((4-((5-chloro-4-(5-(cyclopropylmethyl)-1-methyl-1H-pyrazol-4-yl)pyrimidin-2-yl)amino)piperidin-1-yl)methyl)-1-thioxoisoindolin-2-yl)piperidine-2,6-dione] | 30 to 40% | 60 to 70% | A (0% ≤ substrate protein remaining % ≤ 80%) | – | – | 10 to 20% | 50 to 60%
